Test results reported in patent publication US8802597B2, “Herbicidal pyrimidines” (E I du Pont de Nemours and Company, priority 2003, dated 2014).

What was measured:
Assay in all cases: Test G pre/postemergence
Assay type in all cases: in vivo
[1] = system: large crabgrass (Digitaria sanguinalis)
Outline: (§1)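 Test chemicals in a non-phytotoxic solvent blend with surfactant are applied to soil after seeding or to foliage of 2–18 cm seedlings. Greenhouse response is scored visually at 12–21 days on a 0 to 100 control scale.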

[2] = system: downy bromegrass (Bromus tectorum)
Outline: as §1

[3] = system: common groundsel (Senecio vulgaris)
Outline: as §1

[4] = system: itchgrass (Rottboellia cochinchinensis)
Outline: as §1

[5] = system: barnyardgrass (Echinochloa crus-galli)
Outline: as §1

[6] = system: quackgrass (Elytrigia repens)
Outline: as §1

[7] = system: prickly sida (Sida spinosa)
Outline: as §1

[8] = system: southern sandbur (Cenchrus echinatus)
Outline: as §1

[9] = system: common chickweed (Stellaria media); details: Preemergence, scale 0-100
Outline: as §1

[10] = system: common ragweed (Ambrosia elatior)
Outline: as §1

[11] = system: guineagrass (Panicum maximum)
Outline: as §1

[12] = Postemergence, 8 g ai/ha, scale 0 to 100
[13] = Postemergence, 16 g ai/ha, scale 0 to 100
[14] = Postemergence, 31 g ai/ha, scale 0 to 100
[15] = Postemergence, 62 g ai/ha, scale 0 to 100
[16] = Preemergence, 8 g ai/ha, scale 0-100
[17] = Preemergence, 16 g ai/ha, scale 0-100
[18] = Preemergence, 31 g ai/ha, scale 0-100
[19] = Preemergence, 62 g ai/ha, scale 0-100

Question: Which results are given for CCOC(=O)c1nc(-c2ccc(Cl)cc2)nc(N)c1Cl [Compound 64, ethyl 6-amino-5-chloro-2-(4-chlorophenyl)-4-pyrimidinecarboxylate]?
Answer: Plant response rating, Crabgrass, Large [1, 12]: 30; Plant response rating, Crabgrass, Large [1, 13]: 50; Plant response rating, Crabgrass, Large [1, 14]: 70; Plant response rating, Crabgrass, Large [1, 15]: 80; Plant response rating, Crabgrass, Large [1, 16]: 0; Plant response rating, Crabgrass, Large [1, 17]: 0; Plant response rating, Crabgrass, Large [1, 18]: 0; Plant response rating, Crabgrass, Large [1, 19]: 35; Plant response rating, Bromegrass, Downy [2, 12]: 0; Plant response rating, Bromegrass, Downy [2, 13]: 20; Plant response rating, Bromegrass, Downy [2, 14]: 40; Plant response rating, Bromegrass, Downy [2, 15]: 75; Plant response rating, Bromegrass, Downy [2, 16]: 0; Plant response rating, Bromegrass, Downy [2, 17]: 0; Plant response rating, Bromegrass, Downy [2, 18]: 0; Plant response rating, Bromegrass, Downy [2, 19]: 0; Plant response rating, Groundsel [3, 12]: 0; Plant response rating, Groundsel [3, 13]: 0; Plant response rating, Groundsel [3, 14]: 0; Plant response rating, Groundsel [3, 15]: 0; Plant response rating, Groundsel [3, 16]: 0; Plant response rating, Groundsel [3, 17]: 0; Plant response rating, Groundsel [3, 18]: 10; Plant response rating, Groundsel [3, 19]: 40; Plant response rating, Itchgrass [4, 12]: 0; Plant response rating, Itchgrass [4, 13]: 0; Plant response rating, Itchgrass [4, 14]: 0; Plant response rating, Itchgrass [4, 15]: 60; Plant response rating, Itchgrass [4, 16]: 0; Plant response rating, Itchgrass [4, 17]: 0; Plant response rating, Itchgrass [4, 18]: 0; Plant response rating, Itchgrass [4, 19]: 20; Plant response rating, Barnyardgrass [5, 12]: 0; Plant response rating, Barnyardgrass [5, 13]: 20; Plant response rating, Barnyardgrass [5, 14]: 20; Plant response rating, Barnyardgrass [5, 15]: 20; Plant response rating, Barnyardgrass [5, 16]: 0; Plant response rating, Barnyardgrass [5, 17]: 0; Plant response rating, Barnyardgrass [5, 18]: 0; Plant response rating, Barnyardgrass [5, 19]: 10; Plant response rating, Quackgrass [6, 12]: 0; Plant response rating, Quackgrass [6, 13]: 20; Plant response rating, Quackgrass [6, 14]: 20; Plant response rating, Quackgrass [6, 15]: 35; Plant response rating, Quackgrass [6, 16]: 0; Plant response rating, Quackgrass [6, 17]: 0; Plant response rating, Quackgrass [6, 18]: 0; Plant response rating, Quackgrass [6, 19]: 0; Plant response rating, Prickly Sida [7, 12]: 40; Plant response rating, Prickly Sida [7, 13]: 65; Plant response rating, Prickly Sida [7, 14]: 75; Plant response rating, Prickly Sida [7, 15]: 75; Plant response rating, Prickly Sida [7, 16]: 0; Plant response rating, Prickly Sida [7, 17]: 0; Plant response rating, Prickly Sida [7, 18]: 30; Plant response rating, Prickly Sida [7, 19]: 50; Plant response rating, Sandbur [8, 12]: 0; Plant response rating, Sandbur [8, 13]: 0; Plant response rating, Sandbur [8, 14]: 20; Plant response rating, Sandbur [8, 15]: 20; Plant response rating, Sandbur [8, 16]: 0; Plant response rating, Sandbur [8, 17]: 0; Plant response rating, Sandbur [8, 18]: 0; Plant response rating, Sandbur [8, 19]: 0; Plant response rating, Chickweed ([9]; 8 g ai/ha): 0; Plant response rating, Chickweed ([9]; 31 g ai/ha): 0; Plant response rating, Chickweed ([9]; 62 g ai/ha): 0; Plant response rating, Ragweed [10, 12]: 75; Plant response rating, Ragweed [10, 13]: 75; Plant response rating, Ragweed [10, 14]: 100; Plant response rating, Ragweed [10, 15]: 100; Plant response rating, Ragweed [10, 16]: 65; Plant response rating, Ragweed [10, 17]: 65; Plant response rating, Ragweed [10, 18]: 65; Plant response rating, Ragweed [10, 19]: 95; Plant response rating, Guineagrass [11, 12]: 0; Plant response rating, Guineagrass [11, 13]: 0; Plant response rating, Guineagrass [11, 14]: 0; Plant response rating, Guineagrass [11, 15]: 0; Plant response rating, Guineagrass [11, 16]: 0; Plant response rating, Guineagrass [11, 17]: 0; Plant response rating, Guineagrass [11, 18]: 0; Plant response rating, Guineagrass [11, 19]: 0
